Laboratory results as given in US20240398783A1, “Compounds and Pharmaceutical Compositions Comprising Inhibitors of Amyloid Peptide Interactions with Glycosaminoglycans, Methods of Treatment and Use Thereof” (Gismo Therapeutics, Inc., priority 2021, published 2024).
Where a name gives a salt, the structure may show the parent alone. Read-outs that look alike come from different tables or passages of the source.

What was measured:
[1] = target: Tau binding to heparin (HS-GAG) (Homo sapiens, UniProt P10636); assay: Inhibition of Tau binding to immobilized heparin-BSA (ELISA); design: species or system porcine; conditions: for inhibition at 30 µM: read-out: Tau/Heparin Activity (% inhibition class)
Protocol: (§1) Porcine intestinal mucosa heparin conjugated to Bovine Serum Albumin (Heparin-BSA) was prepared as described (Najjam, S. et al. 1997, Cytokine 12, 1013-1022). Heparin is a sulfated HS-GAG and is commonly used as a HS-GAG in biochemical and binding assays (Lindahl, U. and Kjellen, L. (2013) ibid). Heparin-BSA at 0.01 mg/ml in Phosphate Buffered Saline (PBS; pH 7.4) was added to a 96 well polystyrene ELISA plate (NUNC Cat. No. 449824; 100 μl per well) and incubated Over Night (ON) at 4 degrees Celsius. For negative controls, ELISA plates were coated with BSA instead of Heparin-BSA, using the same procedure. Following the incubation, the plate was washed consecutively, by immersion, with de-ionized water and PBS (pH 7.4). The ELISA plate was then blocked with nonfat milk (2%, 200 μl per well) for 2 hours at Room Temperature (RT) with gentle shaking. Following blocking, the plate was washed with de-ionized water then PBS (pH 7.4). GBAPs were dissolved and diluted in PBS (pH 6.5, supplemented with 0.1% BSA) at desired concentrations, added to the ELISA plates containing immobilized Heparin-BSA (100 μl per well) and incubated for 2 hours at RT with gentle shaking. Following incubation, the plate was washed with de-ionized water and three times with PBS (pH 6.5) plus Tween. Bound GBAP was detected by a monoclonal antibody specific for that GBAP, followed by incubation with secondary antibody conjugated to horseradish peroxidase (HRP). Antibody was diluted in PBS (pH 6.5 supplemented with 1% BSA). Following each incubation with antibody, the plate was washed with de-ionized water and three times with PBS (pH 6.5) wash buffer containing 0.1% Tween. The peroxidase substrate chromogen, TMB (Dako Cat. No. S1599) was added (100 μl per well) to the ELISA plate and incubated at room temperature. After 5 minutes ELISA Stop Solution (hydrochloric acid 1N, sulfuric acid 3N) was added (100 μl per well) to stop the peroxidase catalyzed colorimetric reaction. The Optical Density of the samples was measured at 450 nm using an ELISA plate reader (BioTek Synergy H1). Following color development, the % inhibition compared to control (BSA-coated plates) was determined. IC-50s were calculated using GraphPad Prism software.
The assay was performed as described in Example 43, with the following modifications. Following to coating the plates with Heparin-BSA, plates were washed as described. The compounds were dissolved in DMSO at 10 mM final concentration and further diluted prior to assay. DMSO concentration in the screening well was up to 2%. Individual compounds were co-incubated with Tau on plates containing immobilized heparin. Tau purchased from rPeptide (Cat. No. T1001) was dissolved in DMSO (Sigma Cat. No. D2650), quickly frozen and kept in aliquots at −80 degrees Celsius. Tau dissolved in PBS (pH 6.5, supplemented with BSA, 0.1%) was added to the ELISA plate (100 μl per well) and incubated for 2 hours at RT with gentle shaking. Following the incubation, the plate was washed with de-ionized water and three times with PBS (pH 6.5) plus Tween. Bound Tau was detected by anti-Tau Monoclonal Antibody D-8 (Santa Cruz Cat. No. sc-166060), followed by secondary anti-IgG antibody conjugated to HRP (R&D System, Cat. No. HAF007). Following to color development with TMB, as described in Example 43, the Optical Density of the samples was measured at 450 nm using an ELISA plate reader. Following color development, the % inhibition compared to control (no compound, DMSO control) for every compound was determined.
An example of inhibition curve is shown in FIG. 3 for Inhibitor Compounds 3 and 6. As described in Example 43, Heparin in the form of Heparin-BSA conjugate is used as a source of HS-GAG. For each compound IC-50 value in Tau—heparin-BSA binding assay is shown in […]. In some cases IC-50 was not measured and […] at 30 μM compound concentration is shown instead. […]

[2] = target: T1, SAA binding to heparin (HS-GAG) (Homo sapiens, UniProt P0DJI8); assay: Inhibition of SAA binding to immobilized heparin-BSA (ELISA); design: species or system porcine
T1 sequence (P0DJI8 19-122): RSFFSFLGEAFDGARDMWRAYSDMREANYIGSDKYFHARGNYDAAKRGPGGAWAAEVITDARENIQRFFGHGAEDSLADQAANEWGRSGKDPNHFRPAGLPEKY
Protocol: as §1
The assay was performed as described in Example 43, with the following modifications. Following to coating the plates with Heparin-BSA, plates were washed as described. The compounds were dissolved in DMSO at 10 mM final concentration and further diluted prior to assay. DMSO concentration in the screening well was up to 2%. Individual compounds were co-incubated with SAA on plates containing immobilized heparin. Serum amyloid A (SAA) from PeProtech (NJ, USA, Cat. No. 300-53) was dissolved in DMSO, quickly frozen and kept in aliquots at −80 degrees Celsius. SAA dissolved in Tris buffer (pH 6.5, supplemented with BSA, 0.1%) was added to the ELISA plate (100 μl per well) and incubated for 2 hours at RT with gentle shaking. Following the incubation, the plate was washed with de-ionized water and three times with Tris Buffered Saline (TBS, pH 6.5) plus Tween. Bound SAA was detected by Anti-SAA Monoclonal Antibody (R&D System Cat. No. MAB30192), followed by secondary anti-IgG antibody conjugated to HRP (R&D System, Cat. No. HAF007). Antibody was diluted in TBS antibody buffer (pH6.5 supplemented with 1% BSA). Following each incubation with antibody, the plate was washed with de-ionized water and three times with TBS (pH6.5) wash buffer containing 0.1% Tween. Following to color development with TMB, as described in Example 43, the Optical Density of the samples was measured at 450 nm using an ELISA plate reader. Following color development, the % inhibition compared to control (no compound, DMSO control) for every compound was determined.
As described in Example 43, Heparin in the form of Heparin-BSA conjugate is used as a source of HS-GAG. For each compound IC-50 value in SAA—heparin-BSA binding assay is shown in μM (micromolar). […]

[3] = Tau/Heparin Activity (IC-50), Tau, heparin-BSA
[4] = read-out: Serum Amyloid A/Heparin Activity (IC-50); SAA, heparin-BSA
[5] = read-out: Serum Amyloid A/Heparin Activity (% inhibition class)
[6] = 30 μM compound; SAA, heparin-BSA; read-out: Serum Amyloid A/Heparin Activity (% inhibition class)
[7] = 30 μM compound, Tau, heparin-BSA

Sequence of Tau binding to heparin (HS-GAG) (P10636 with tags, fused parts or gaps): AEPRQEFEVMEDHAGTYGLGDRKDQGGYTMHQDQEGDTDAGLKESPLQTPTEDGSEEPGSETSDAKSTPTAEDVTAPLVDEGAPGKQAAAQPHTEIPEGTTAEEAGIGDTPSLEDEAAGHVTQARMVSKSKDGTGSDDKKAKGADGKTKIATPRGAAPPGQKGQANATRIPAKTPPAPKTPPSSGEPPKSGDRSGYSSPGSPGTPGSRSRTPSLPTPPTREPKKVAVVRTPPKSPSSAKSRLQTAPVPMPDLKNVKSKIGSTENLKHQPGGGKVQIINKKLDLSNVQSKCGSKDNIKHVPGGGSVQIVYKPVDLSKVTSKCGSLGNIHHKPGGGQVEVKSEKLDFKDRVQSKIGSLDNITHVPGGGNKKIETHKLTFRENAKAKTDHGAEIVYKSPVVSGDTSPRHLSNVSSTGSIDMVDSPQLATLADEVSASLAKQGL

Structure (SMILES) | IC50 [1, 3] [µM] | inhibition at 30 µM [2, 6] [%] | further results
Cc1cc(-n2ccnc2)ccc1/C=N/Nc1ccnc2cc(Cl)ccc12 [Compound 1, (E)-4-((E)-(4-(1H-imidazol-1-yl)-2-methylbenzylidene)hydrazono)-7-chloro-1,4-dihydroquinoline] | – | – | IC50 ([1]; Tau, heparin-BSA, read-out: Tau/Heparin Activity (IC-50)): 1.38 µM; IC50 ([2]; SAA, heparin-BSA; read-out: Serum Amyloid A/Heparin Activity (IC-50)): 8.16 µM
Cc1ncn(-c2ccc(/C=N/Nc3ccnc4cc(Cl)ccc34)cc2)c1C [Compound 2, (E)-7-chloro-4-((E)-(4-(4,5-dimethyl-1H-imidazol-1-yl)benzylidene)hydrazono)-1,4-dihydroquinoline] | 4.42 | – | IC50 [2, 4]: 16 µM
Clc1ccc2c(N/N=C/c3ccc(-n4cccn4)cc3)ccnc2c1 [Compound 3, (E)-4-((E)-(4-(1H-pyrazol-1-yl)benzylidene)hydrazono)-7-chloro-1,4-dihydroquinoline] | 1.56 | – | inhibition at 30 µM [2, 5]: > 30%
C[N+](C)(C)Cc1ccc(/C=N\Nc2ccnc3ccc(Cl)cc23)cc1 [Compound 4, (Z)-1-(4-((2-(6-chloroquinolin-4-yl)hydrazineylidene)methyl)phenyl)—N,N,N-trimethylmethanaminium iodide] | 29.2 | < 30 | –
Fc1ccc2c(N/N=C/c3ccc(-n4ccnc4)cc3)ccnc2c1 [Compound 5, (E)-4-(2-(4-(1H-imidazol-1-yl)benzylidene)hydrazinyl)-7-fluoroquinoline] | 31.4 | – | IC50 [2, 4]: 24 µM
Fc1ccc2c(N/N=C/c3ccc(CN4CCOCC4)cc3)ccnc2c1 [Compound 6, (E)-4-(4-((2-(7-fluoroquinolin-4-yl)hydrazono)methyl)benzyl)morpholine] | 2.27 | > 30 | –
CN1CCN(Cc2ccc(/C=N/Nc3ccnc4cc(Cl)ccc34)cc2)CC1 [Compound 7, (E)-7-chloro-4-(2-(4-((4-methylpiperazin-1-yl)methyl)benzylidene)hydrazinyl)quinolone] | 15.5 | > 30 | –
C(=N\Nc1ccc2c3c(cccc13)CC2)/c1ccc(-n2ccnc2)cc1 [Compound 8, (E)-1-(4-((2-(1,2-dihydroacenaphthylen-5-yl)hydrazineylidene)methyl)phenyl)-1H-imidazole] | – | – | inhibition at 30 µM [1]: < 30%; inhibition at 30 µM [2, 5]: < 30%
C[n+]1ccc(/C=N\Nc2ccnc3ccccc23)cc1 [Compound 9, (Z)-1-methyl-4-((2-(quinolin-4-yl)hydrazono)methyl)pyridin-1-ium iodide] | – | < 30 | inhibition at 30 µM [1, 7]: < 30%
O=S1(=O)CCN(Cc2ccc(/C=N/Nc3ccnc4cc(F)ccc34)cc2)CC1 [Compound 10, (E)-4-(4-((2-(7-fluoroquinolin-4-yl)hydrazono)methyl)benzyl)thiomorpholine 1,1-dioxide] | – | < 30 | inhibition at 30 µM [1, 7]: < 30%
COc1cc2nccc(NN=Cc3ccc(-n4ccnc4)c(C)c3)c2cc1OC [Compound 11, 4-(2-(4-(1H-imidazol-1-yl)-3-methylbenzylidene)hydrazineyl)-6,7-dimethoxyquinoline hydrochloride] | 3.3 | – | inhibition at 30 µM [2, 5]: < 30%
COc1ccc2c(NN=Cc3ccc(-n4ccnc4)c(C)c3)ccnc2c1 [Compound 12, 4-(2-(4-(1H-imidazol-1-yl)-3-methylbenzylidene)hydrazineyl)-7-methoxyquinoline] | 13.1 | – | IC50 [2, 4]: 31.7 µM
COc1cc2nccc(N/N=C/c3ccc(-n4ccnc4)c(OC)c3)c2cc1OC [Compound 13, (E)-4-(2-(4-(1H-imidazol-1-yl)-3-methoxybenzylidene)hydrazineyl)-6,7-dimethoxyquinoline phosphate] | – | – | inhibition at 30 µM [1]: < 30%; inhibition at 30 µM [2, 5]: < 30%
Clc1ccc2c(N/N=C/c3ccc(-n4ccnc4)nc3)ccnc2c1 [Compound 14, (E)-4-(2-((6-(1H-imidazol-1-yl)pyridin-3-yl)methylene)hydrazineyl)-7-chloroquinoline hydrochloride] | 20.3 | – | IC50 [2, 4]: 7.67 µM
